# Experimental data from US20020115642A1, “Beta-lactam antibiotics” (priority 2000, published 2002).
# Read-outs that look alike come from different tables or passages of the source.
# Key:
# [1] = system: E. coli N; assay: Susceptibility testing (MIC, modified NCCLS method); format: cell-based, Escherichia coli; settings: Escherichia coli, read-out: MIC
# Procedure: (§1) The NCCLS (National Committee for Clinical Laboratory Standards) method to determine MIC's of antimicrobial compounds was modified for high-throughput screening. All stocks of tested compounds were prepared in either water or in dimethylsulfoxide (DMSO), depending on the solubility. […] Briefly 20 2-fold serial dilutions of testing compounds from the highest concentration were made in a 384-well microtiter plate. Each well was inoculated with testing bacteria in broth to a final concentration of approximately 1-1.5×10^6 cells/ml. Bacterial growth was determined by the increase of optical density at 600 nm using a microplate reader (Tecan SpectraFluor Plus).
# [2] = system: E. coli/TEM-1; assay: as above; format: cell-based, Escherichia coli; settings: Escherichia coli
# Procedure: as §1
# [3] = system: Staphylococcus aureus; assay: as above; format: cell-based; settings: Staphylococcus aureus
# Method in brief: (§2)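 Readout OD600 increase. Compounds (aqueous or DMSO stocks) serially diluted 2-fold across 20 concentrations, then inoculated with bacterial broth culture to final ~1-1.5×10^6 cells/ml; screening-adapted NCCLS microdilution.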
# [4] = system: E. faecalis; assay: as above; format: cell-based, Enterococcus faecalis; settings: for MIC: Enterococcus faecalis
# Method in brief: as §2
# [5] = system: E. cloacae; assay: as above; format: cell-based, Enterobacter cloacae; settings: for MIC: Enterobacter cloacae
# Method in brief: as §2
# [6] = system: E. aerogenes; assay: as above; format: cell-based, Enterobacter aerogenes; settings: for MIC: Klebsiella aerogenes
# Method in brief: as §2
# [7] = system: K. pneumoniae; assay: as above; format: cell-based, Klebsiella pneumoniae; settings: Klebsiella pneumoniae
# Method in brief: as §2
# [8] = system: S. epidermidis; assay: as above; format: cell-based, Staphylococcus epidermidis; settings: S. epidermidis (5)
# Procedure: as §1
# [9] = system: S. pneumoniae; assay: as above; format: cell-based, Streptococcus pneumoniae; settings: S. pneumoniae (3)
# Procedure: as §1
# [10] = system: E. faecium; assay: as above; format: cell-based, Enterococcus faecium; settings: E. faecium (6)
# Procedure: as §1
# [11] = system: P. aeruginosa; assay: as above; format: cell-based, Pseudomonas aeruginosa; settings: Pseudomonas aeruginosa, read-out: MIC
# Method in brief: as §2
# [12] = system: E coli R(Tem1); assay: Inhibition of bacterial growth (IC50, OD600); format: cell-based; settings: for IC50 ratio N/R: N versus R (Tem1)
# Procedure: Compounds of the invention were tested for their ability to inhibit the growth of β-lactam sensitive and resistant bacteria by contacting samples of such cells with various dilutions of the compositions, incubating the cells at 37° C. in the presence of these compositions and then measuring the number of viable cells present in each sample.
# Two compounds of the invention were tested, Compound (9) and Compound (1l). Incubation of bacterial cells was performed for two time periods, 10 hours and 20 hours. Four E. coli strains were used for the test. These strains were all derived from the strain NovaBlue (NovaGen Inc., Madison, Wis.). E. coli N is a normal, β-lactam sensitive strain. E coli R(Tem1) is a β-lactam resistant strain with a β-lactamase gene on a plasmid. E. coli C(Tem4O-15) is a β-lactam resistant strain with a β-lactam inhibitor resistant β-lactamase gene, and E. coli C(Tem3 1-27) is β-lactam resistant strain with an alternative β-lactam inhibitor resistant β-lactamase gene.
# The various E. coli strains were each treated with dilutions of the compounds of the invention. […] The number of viable cells at each time point was determined by measuring the OD600 of each cell sample.
# After measuring the number of viable cells present, the IC50 for each sample was determined. […] In addition, both compounds were effective at inhibiting the growth of both antibiotic sensitive and resistant bacterial cells.
# [13] = system: UDP-glucuronosyltransferase; assay: Glucuronidation assay; format: in vitro ADME, human; settings: 100 μM, 100 μg human liver microsome, 37° C., 1 hour, TLC
# Procedure: Assays were conducted as outlined in Example 15, using 100 μM Compound (9), triclosan or cephalothin incubated with 100 μg human liver microsome at 37° C. for 1 hour. The reactants were analyzed on TLC plate, and glucuronidated compounds were visualized by MolecularDynamics Storm 820.
# Glucuronidation assay was performed based on modified procedure from Bansal and Gessner (1980) Anal. Biochem. 109:321-329. Reactions were performed in 50 mM Tris buffer, pH 7.6, containing 10 mM MgCl2, ImM UDPGA, 0.04 μCi of ^14C-UDPGA, 0.1 mM substrate, and 100 μg human liver microsome. The final volume was 100 μL. Reactions were incubated at 37° C. for one hour and the reactants extracted with 200 μL of 100% ethanol. The protein was removed by centrifugation at 12,000×g for 5 minutes in an Eppendorf centrifuige. The supernatant was dried and resuspended in 30 μL of 100% methanol and spotted on a Whatman glass-backed linear k TLC plate. Chromatography was performed in a mixture of 1-butanol/acetone/acetic acid/water (35:35:10:20). The TLC plate was then dried and exposed to phosphor imager overnight, then monitored by imaging (MolecularDynamics Storm 820).
# [14] = system: TEM-52, an antibiotic-resitant E. coli; settings: TEM-52 versus wild-type; Fletcher (2001); cited from earlier work
# [15] = system: O=C(Cc1cccs1)N[C@@H]1C(=O)N2C(C(=O)O)=C(/C=C/c3ccc([N+](=O)[O-])cc3[N+](=O)[O-])CS[C@H]12; assay: purified protein, by the assay type; settings: other: progress curve analysis at 16 μM Compound (9) and […] TEM-1 β-lactamase, 37° C.
compound,measurement,setting,value
"CC(=O)OCC1=C(C(=O)O)N2C(=O)[C@@H](NC(=O)Cc3cccs3)[C@H]2SC1 [Cephalothin, cephalothin, reference compound]",MIC,"[1]; E. coli, BLA neg., drug alone",16 µg/mL
same,MIC,[2],> 32 µg/mL
same,MIC,"[3]; ATCC11632, ATCC 11632, methicillin-sensitive, β-lactamase Neg./Pos., read-out: MIC",0.2 µg/mL
same,MIC,"[3]; ATCC13301, ATCC 13301, methicillin-sensitive, β-lactamase Positive, read-out: MIC",6.25 µg/mL
same,MIC,"[3]; ATCC14154, ATCC 14154, methicillin-sensitive, β-lactamase Positive, read-out: MIC",0.39 µg/mL
same,MIC,"[3]; ATCC33591, ATCC 33591, methicillin-resistant, β-lactamase Positive, read-out: MIC",0.56 µg/mL
same,MIC,"[3]; ATCC33592, ATCC 33592, methicillin-sensitive, β-lactamase Positive, read-out: MIC",1.56 µg/mL
same,MIC,"[3]; ATCC33593, ATCC 33593, methicillin-resistant, β-lactamase Positive, read-out: MIC",0.78 µg/mL
same,MIC,"[3]; ATCC33594, ATCC 33594, methicillin-sensitive, β-lactamase Positive, read-out: MIC",0.2 µg/mL
same,MIC,"[3]; ATCC43300, ATCC 43300, methicillin-sensitive, β-lactamase Neg./Pos., read-out: MIC",0.39 µg/mL
same,MIC,"[3]; ATCC700260, ATCC 700260, methicillin-sensitive, β-lactamase Positive, read-out: MIC",0.39 µg/mL
same,MIC,"[3]; ATCC700698, ATCC 700698, methicillin-resistant, β-lactamase Negative, read-out: MIC",100 µg/mL
same,MIC,"[3]; ATCC700699, ATCC 700699, methicillin-resistant, β-lactamase Negative, read-out: MIC",100 µg/mL
same,MIC,"[3]; ATCC700787, ATCC 700787, methicillin-resistant, β-lactamase Positive, read-out: MIC",50 µg/mL
same,MIC,"[3]; ATCC700788, ATCC 700788, methicillin-resistant, β-lactamase Positive, read-out: MIC",3.13 µg/mL
same,MIC,"[3]; ATCC700789, ATCC 700789, methicillin-resistant, β-lactamase Positive, read-out: MIC",6.25 µg/mL
same,MIC,"[3]; MRSA, MRSA tested (7), read-out: Geometric mean of MIC",10.2 µg/mL
same,MIC,"[3]; MSSA, MSSA tested (7), read-out: Geometric mean of MIC",0.58 µg/mL
same,MIC,"[3]; S. aureus (14), read-out: Geometric mean of MIC",2.45 µg/mL
same,MIC,"[3]; S. aureus β-lactamase negative (2), read-out: Geometric mean of MIC",100 µg/mL
same,MIC,"[3]; S. aureus β-lactamase positive (12), read-out: Geometric mean of MIC",1.32 µg/mL
same,MIC range,[4]; E. faecalis (7),25 to 100 µg/mL
same,MIC,"[4]; E. faecalis (7), read-out: GM* MIC (geometric mean)",61 µg/mL
same,MIC range,[5]; E. cloacae (1),>100 µg/mL
same,MIC,"[5]; E. cloacae (1), read-out: GM* MIC (geometric mean)",> 100 µg/mL
same,MIC range,[6]; E. aerogenes (5),>100 µg/mL
same,MIC,"[6]; E. aerogenes (5), read-out: GM* MIC (geometric mean)",> 100 µg/mL
same,MIC,"[7]; K. pneumoniae (5), read-out: GM* MIC (geometric mean)",> 66 µg/mL
same,MIC range,[8],0.2 to 25 µg/mL
same,MIC,"[8]; Staphylococcus epidermidis, read-out: GM* MIC (geometric mean)",1.81 µg/mL
same,MIC range,[9],0.06 to 2 µg/mL
same,MIC,"[9]; Streptococcus pneumoniae, read-out: GM* MIC (geometric mean)",0.247 µg/mL
same,MIC range,[10],>100 µg/mL
same,MIC,"[10]; Enterococcus faecium, read-out: GM* MIC (geometric mean)",> 100 µg/mL
"O=C(Cn1cnnn1)NC1C(=O)N2C(C(=O)O)=C(COc3cc(Cl)ccc3Oc3ccc(Cl)cc3Cl)CS[C@H]12 (stereo partly shown) [Compound 29, 3-(2-(2,4-Dichlorophenoxy)-5-chlorophenoxy)methyl-7-(1-tetrazoleacetamido)-3-cephem-4-carboxylic acid]",MIC,[1]; E. coli (N),2 µg/mL
same,MIC,[2],0.063 µg/mL
same,MIC,"[3]; ATCC11632, S. aureus ATCC 11632, read-out: MIC",0.063 µg/mL
same,MIC,"[3]; ATCC33594, S. aureus ATCC 33594, read-out: MIC",0.063 µg/mL
same,MIC,"[3]; ATCC700260, S. aureus ATCC 700260, read-out: MIC",0.063 µg/mL
same,MIC,"[3]; ATCC700699, S. aureus ATCC 700699, read-out: MIC",0.125 µg/mL
same,MIC,"[4]; ATCC49757, E. faecalis ATCC 49757, read-out: MIC",8 µg/mL
same,MIC,"[4]; ATCC700802, E. faecalis ATCC 700802, read-out: MIC",16 µg/mL
same,MIC,"[5]; ATCC23355, E. cloacae ATCC 23355, read-out: MIC",1 µg/mL
same,MIC,"[6]; ATCC35028, E. aerogenes ATCC 35028, read-out: MIC",32 µg/mL
same,MIC,"[7]; ATCC51503, K. pneumoniae ATCC 51503, read-out: MIC",8 µg/mL
same,MIC,"[7]; ATCC700721, K. pneumoniae ATCC 700721, read-out: MIC",1 µg/mL
same,MIC,"[11]; ATCC21726, P. aeruginosa ATCC 21726",> 32 µg/mL
same,MIC,"[11]; ATCC29872, P. aeruginosa ATCC 29872",> 32 µg/mL
same,melting point,,112 °C
"Oc1cc(Cl)ccc1Oc1ccc(Cl)cc1Cl [Triclosan, triclosan, reference compound]",IC50 ratio N/R,[12]; 10 hours,N/R = 1555x
same,IC50 ratio N/R,[12]; 20 hours,N/R = 2.5x
same,IC50,"[12]; Escherichia coli, 10 h, read-out: IC50 10 hours, Cell R (Tem1), 10 hours",0.166 nM
same,IC50,"[12]; read-out: IC50 10 hours, Cell R (Tem1), 10 hours",0.24 nM
same,glucuronidation by human liver microsome,[13],glucuronidated
CO/N=C(\C(=O)N[C@@H]1C(=O)N2C(C(=O)O)=C(COC(C)=O)CS[C@H]12)c1csc(N)n1 [cefotaxime],fold more resistant than wild-type E coli,[14],more than 500 fold
TEM-1 β-lactamase (Escherichia coli),Km,[15],15 µM
same,kcat,[15],3.3 s⁻¹
same,kcat/Km,[15],220000 M⁻¹ s⁻¹
